The text below walks through data of ChEMBL document CHEMBL4610007, “Design and synthesis of boron-containing diphenylpyrimidines as potent BTK and JAK3 dual inhibitors” (Bioorg Med Chem, 2020).

SMILES strings stand for the structures.

The target of data set [1] is Tyrosine-protein kinase BTK (Homo sapiens, UniProt Q06187).
Description: Inhibition of recombinant human His-tagged full length BTK expressed in baculovirus expression system using Ulight-Poly GT as substrate incubated for 2 hrs by Lanthascreen TR-FRET assay
Data set [2] has as its target Tyrosine-protein kinase JAK1 (Homo sapiens, UniProt P23458). As to the kind of experiment: Inhibition of recombinant human N-terminal GST-tagged JAK1 (850 to 1154 residues) expressed in baculovirus expression system using Ulight-Poly GT as substrate incubated for 2 hrs by Lanthascreen TR-FRET assay.
Data set [3] addresses Non-receptor tyrosine-protein kinase TYK2 (Homo sapiens, UniProt P29597). The experiment in a line: Inhibition of recombinant human N-terminal GST-tagged TYK2 (871 to 1187 residues) expressed in baculovirus expression system using Ulight-Poly GT as substrate incubated for 2 hrs by Lanthascreen TR-FRET assay.
The species entered for data set [4] is Homo sapiens. The experiment in a line: Selectivity index, ratio of IC50 for recombinant human N-terminal GST-tagged JAK1 (850 to 1154 residues) expressed in baculovirus expression system to IC50 for recombinant human N-terminal His-tagged JAK3 (795 to 1124 residues) expressed in baculovirus expression system.
Data set [5] is filed under the species Homo sapiens. As to the kind of experiment: Selectivity index, ratio of IC50 for recombinant human N-terminal His-tagged JAK2 (826 to 1132 residues) expressed in baculovirus expression system to IC50 for recombinant human N-terminal His-tagged JAK3 (795 to 1124 residues) expressed in baculovirus expression system.
The species entered for data set [6] is Homo sapiens. As to the kind of experiment: Selectivity index, ratio of IC50 for recombinant human N-terminal GST-tagged TYK2 (871 to 1187 residues) expressed in baculovirus expression system to IC50 for recombinant human N-terminal His-tagged JAK3 (795 to 1124 residues) expressed in baculovirus expression system.
The target in data set [7] is Tyrosine-protein kinase JAK2 (Homo sapiens, UniProt O60674).
Description: Inhibition of recombinant human N-terminal His-tagged JAK2 (826 to 1132 residues) expressed in baculovirus expression system using Ulight-Poly GT as substrate incubated for 2 hrs by Lanthascreen TR-FRET assay
The target in data set [8] is T1, Tyrosine-protein kinase JAK3 (Homo sapiens, UniProt P52333).
T1 sequence (P52333 whole entry): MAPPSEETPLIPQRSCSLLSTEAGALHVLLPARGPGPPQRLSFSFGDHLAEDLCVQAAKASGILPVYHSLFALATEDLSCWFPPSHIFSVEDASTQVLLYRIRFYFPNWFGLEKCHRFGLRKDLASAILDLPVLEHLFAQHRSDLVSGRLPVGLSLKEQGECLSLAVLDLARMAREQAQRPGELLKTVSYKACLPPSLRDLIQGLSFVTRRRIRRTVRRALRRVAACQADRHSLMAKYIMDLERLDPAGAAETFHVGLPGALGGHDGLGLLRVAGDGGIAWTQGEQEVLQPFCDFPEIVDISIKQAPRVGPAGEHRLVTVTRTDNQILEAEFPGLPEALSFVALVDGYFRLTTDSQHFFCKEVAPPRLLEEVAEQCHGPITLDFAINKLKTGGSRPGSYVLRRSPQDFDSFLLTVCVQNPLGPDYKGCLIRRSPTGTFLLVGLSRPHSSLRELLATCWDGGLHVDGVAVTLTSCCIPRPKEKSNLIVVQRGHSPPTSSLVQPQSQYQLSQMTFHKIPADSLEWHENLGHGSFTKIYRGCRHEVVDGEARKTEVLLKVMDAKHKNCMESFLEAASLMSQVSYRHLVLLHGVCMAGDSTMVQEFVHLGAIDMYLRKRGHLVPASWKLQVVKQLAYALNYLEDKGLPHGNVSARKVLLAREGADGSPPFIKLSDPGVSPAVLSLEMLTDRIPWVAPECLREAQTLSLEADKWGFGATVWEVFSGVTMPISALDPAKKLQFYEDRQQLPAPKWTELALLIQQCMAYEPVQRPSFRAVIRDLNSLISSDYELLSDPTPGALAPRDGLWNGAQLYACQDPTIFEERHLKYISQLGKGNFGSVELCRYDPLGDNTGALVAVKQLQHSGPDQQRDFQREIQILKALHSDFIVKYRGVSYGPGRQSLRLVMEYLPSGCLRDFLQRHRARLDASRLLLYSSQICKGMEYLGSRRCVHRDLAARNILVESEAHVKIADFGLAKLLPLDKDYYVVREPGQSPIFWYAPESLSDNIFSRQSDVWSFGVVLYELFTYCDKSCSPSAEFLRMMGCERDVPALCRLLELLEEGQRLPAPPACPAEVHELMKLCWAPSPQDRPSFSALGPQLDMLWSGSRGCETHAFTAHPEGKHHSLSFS
Description: Inhibition of recombinant human N-terminal His-tagged JAK3 (795 to 1124 residues) expressed in baculovirus expression system using Ulight-Poly GT as substrate incubated for 2 hrs by Lanthascreen TR-FRET assay

The next data set deals with Raji. The experiment in a line: cells. Particulars: Homo sapiens, 72 h.
In another data set the test system is Ramos. As to the kind of experiment: cells. As to conditions: Homo sapiens, 72 h.
Another data set deals with HEL. The experiment in a line: cells. Particulars: Homo sapiens, 72 h.
The next data set deals with JeKo-1. The experiment in a line: cells. As to conditions: Homo sapiens, JeKo-1, 72 h.
A further data set has as its system OCI-Ly10. The experiment in a line: cells. As to conditions: Homo sapiens, OCI-Ly10, 72 h.
Data set [9] can be described thus: in vitro. As to conditions: human, liver microsomes. Background: Liver microsomes are a subcellular fraction often used to study metabolism.
A short description of data set [10]: in vitro. Particulars: human, liver microsomes. The source holds these as a separate data set.
A short description of data set [11]: in vitro. Particulars: human, liver microsomes. The source holds these as a separate data set.
Description: Metabolic stability in human liver microsomes assessed as compound remaining at 0.2 uM incubated for 60 mins by UPLC-MS/MS analysis

Sequence of Tyrosine-protein kinase JAK2 (O60674 whole entry): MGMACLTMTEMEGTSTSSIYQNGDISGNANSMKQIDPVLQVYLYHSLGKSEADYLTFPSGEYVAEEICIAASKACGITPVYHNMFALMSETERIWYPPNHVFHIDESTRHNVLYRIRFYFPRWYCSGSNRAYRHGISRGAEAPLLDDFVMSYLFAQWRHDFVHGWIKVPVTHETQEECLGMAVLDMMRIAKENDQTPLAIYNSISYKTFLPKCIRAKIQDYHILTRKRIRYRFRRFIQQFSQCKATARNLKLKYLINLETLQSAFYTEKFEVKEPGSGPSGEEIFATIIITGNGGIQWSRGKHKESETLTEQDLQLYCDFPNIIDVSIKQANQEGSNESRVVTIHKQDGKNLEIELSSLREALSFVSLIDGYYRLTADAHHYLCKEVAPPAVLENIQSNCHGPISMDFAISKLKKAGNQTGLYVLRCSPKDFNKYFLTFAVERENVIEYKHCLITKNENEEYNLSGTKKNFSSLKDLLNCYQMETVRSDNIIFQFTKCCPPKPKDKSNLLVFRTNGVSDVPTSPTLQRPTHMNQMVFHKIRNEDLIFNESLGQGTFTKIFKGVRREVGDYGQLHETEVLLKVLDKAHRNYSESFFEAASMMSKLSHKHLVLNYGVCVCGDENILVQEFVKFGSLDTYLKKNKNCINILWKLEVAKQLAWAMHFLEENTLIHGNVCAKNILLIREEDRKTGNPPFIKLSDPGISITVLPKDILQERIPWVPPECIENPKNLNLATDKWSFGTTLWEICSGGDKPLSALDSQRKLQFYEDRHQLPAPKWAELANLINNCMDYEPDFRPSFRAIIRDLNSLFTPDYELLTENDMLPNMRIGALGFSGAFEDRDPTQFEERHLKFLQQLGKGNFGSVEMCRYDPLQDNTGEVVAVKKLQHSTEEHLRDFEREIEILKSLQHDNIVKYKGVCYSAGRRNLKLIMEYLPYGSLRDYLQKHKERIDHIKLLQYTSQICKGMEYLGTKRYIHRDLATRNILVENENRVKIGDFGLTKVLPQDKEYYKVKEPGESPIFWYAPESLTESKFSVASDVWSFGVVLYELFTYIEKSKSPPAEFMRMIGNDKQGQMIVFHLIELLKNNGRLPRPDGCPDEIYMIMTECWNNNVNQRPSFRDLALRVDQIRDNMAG
Sequence of Tyrosine-protein kinase BTK (Q06187 whole entry, the tested form may be a part): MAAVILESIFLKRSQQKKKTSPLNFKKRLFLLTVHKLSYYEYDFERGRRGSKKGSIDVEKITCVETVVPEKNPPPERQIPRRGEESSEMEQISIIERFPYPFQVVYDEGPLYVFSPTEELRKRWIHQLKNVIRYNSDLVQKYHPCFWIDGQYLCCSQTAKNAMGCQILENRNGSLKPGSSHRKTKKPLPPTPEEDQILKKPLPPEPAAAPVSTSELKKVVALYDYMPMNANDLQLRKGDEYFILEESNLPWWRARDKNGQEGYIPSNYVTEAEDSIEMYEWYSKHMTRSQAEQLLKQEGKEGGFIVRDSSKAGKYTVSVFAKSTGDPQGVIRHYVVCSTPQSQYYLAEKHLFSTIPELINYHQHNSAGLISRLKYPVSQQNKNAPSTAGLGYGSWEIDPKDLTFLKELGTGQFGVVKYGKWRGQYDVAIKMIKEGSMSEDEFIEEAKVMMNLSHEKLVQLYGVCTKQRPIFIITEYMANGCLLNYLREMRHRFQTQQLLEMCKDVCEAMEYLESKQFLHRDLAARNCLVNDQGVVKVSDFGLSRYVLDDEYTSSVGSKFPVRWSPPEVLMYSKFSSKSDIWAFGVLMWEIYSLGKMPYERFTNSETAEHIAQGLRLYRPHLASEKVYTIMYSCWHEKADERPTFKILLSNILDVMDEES
Sequence of Non-receptor tyrosine-protein kinase TYK2 (P29597 whole entry, the tested form may be a part): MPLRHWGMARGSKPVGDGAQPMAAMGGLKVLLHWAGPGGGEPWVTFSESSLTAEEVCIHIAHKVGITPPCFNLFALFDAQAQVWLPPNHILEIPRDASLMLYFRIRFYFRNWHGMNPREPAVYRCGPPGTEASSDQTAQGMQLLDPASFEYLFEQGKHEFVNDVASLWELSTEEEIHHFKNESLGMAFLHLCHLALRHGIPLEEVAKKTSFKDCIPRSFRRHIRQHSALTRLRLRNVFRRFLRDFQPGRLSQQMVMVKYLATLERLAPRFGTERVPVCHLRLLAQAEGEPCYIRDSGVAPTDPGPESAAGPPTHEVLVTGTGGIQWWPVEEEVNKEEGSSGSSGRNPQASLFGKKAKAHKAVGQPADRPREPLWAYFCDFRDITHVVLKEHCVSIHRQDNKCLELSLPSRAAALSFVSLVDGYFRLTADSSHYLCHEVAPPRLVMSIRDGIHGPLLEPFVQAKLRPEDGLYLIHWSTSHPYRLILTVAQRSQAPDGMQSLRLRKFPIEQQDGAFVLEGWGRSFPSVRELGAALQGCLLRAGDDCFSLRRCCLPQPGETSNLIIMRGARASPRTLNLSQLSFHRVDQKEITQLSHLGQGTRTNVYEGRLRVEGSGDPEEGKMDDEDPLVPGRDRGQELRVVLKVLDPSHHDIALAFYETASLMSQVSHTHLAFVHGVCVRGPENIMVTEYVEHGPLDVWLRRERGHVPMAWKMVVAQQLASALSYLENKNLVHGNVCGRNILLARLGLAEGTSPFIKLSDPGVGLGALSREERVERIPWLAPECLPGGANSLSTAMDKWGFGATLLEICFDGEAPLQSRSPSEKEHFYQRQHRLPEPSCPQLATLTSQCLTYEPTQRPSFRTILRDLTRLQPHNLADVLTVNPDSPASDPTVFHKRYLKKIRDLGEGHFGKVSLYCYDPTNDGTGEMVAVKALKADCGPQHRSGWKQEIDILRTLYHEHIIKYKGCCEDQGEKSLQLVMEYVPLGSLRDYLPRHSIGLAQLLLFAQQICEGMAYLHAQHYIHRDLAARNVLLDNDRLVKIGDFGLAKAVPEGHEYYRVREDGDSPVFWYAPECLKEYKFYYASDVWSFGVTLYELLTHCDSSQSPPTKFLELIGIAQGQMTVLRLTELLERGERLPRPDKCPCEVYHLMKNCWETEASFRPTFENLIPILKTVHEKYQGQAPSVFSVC
Sequence of Tyrosine-protein kinase JAK1 (P23458 whole entry, the tested form may be a part): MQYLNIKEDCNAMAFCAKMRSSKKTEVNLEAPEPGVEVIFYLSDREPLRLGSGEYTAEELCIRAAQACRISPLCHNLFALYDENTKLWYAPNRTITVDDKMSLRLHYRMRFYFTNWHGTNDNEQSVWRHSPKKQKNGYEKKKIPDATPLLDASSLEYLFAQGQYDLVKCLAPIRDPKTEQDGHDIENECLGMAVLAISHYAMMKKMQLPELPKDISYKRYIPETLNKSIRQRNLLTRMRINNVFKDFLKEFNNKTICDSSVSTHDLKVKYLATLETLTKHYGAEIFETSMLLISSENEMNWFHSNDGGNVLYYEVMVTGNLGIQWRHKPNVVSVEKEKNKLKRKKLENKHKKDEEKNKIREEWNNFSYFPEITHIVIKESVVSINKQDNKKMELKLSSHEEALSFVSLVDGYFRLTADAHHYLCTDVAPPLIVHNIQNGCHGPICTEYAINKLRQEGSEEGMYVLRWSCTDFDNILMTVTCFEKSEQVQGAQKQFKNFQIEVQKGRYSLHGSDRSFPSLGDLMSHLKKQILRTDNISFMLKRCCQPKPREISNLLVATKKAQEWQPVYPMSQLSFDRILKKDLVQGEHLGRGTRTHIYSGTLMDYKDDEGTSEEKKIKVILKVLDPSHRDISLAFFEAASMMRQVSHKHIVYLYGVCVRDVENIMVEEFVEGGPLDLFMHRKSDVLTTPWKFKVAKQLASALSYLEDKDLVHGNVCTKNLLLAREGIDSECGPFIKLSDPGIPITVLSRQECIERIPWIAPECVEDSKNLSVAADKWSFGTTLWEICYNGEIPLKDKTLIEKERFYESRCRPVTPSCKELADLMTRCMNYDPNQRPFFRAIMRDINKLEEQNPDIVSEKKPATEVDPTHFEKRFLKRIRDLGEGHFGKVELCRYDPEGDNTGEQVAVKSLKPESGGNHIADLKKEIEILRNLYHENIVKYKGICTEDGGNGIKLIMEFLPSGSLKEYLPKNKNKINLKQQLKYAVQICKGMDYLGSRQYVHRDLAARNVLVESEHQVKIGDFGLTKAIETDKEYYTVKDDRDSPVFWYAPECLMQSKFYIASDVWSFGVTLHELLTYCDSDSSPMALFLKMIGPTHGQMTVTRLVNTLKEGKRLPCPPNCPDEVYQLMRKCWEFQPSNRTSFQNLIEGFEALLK
Description for HEL: Antiproliferative activity against human HEL cells assessed as reduction in cell viability incubated for 72 hrs by CCK-8 assay
Description for JeKo-1: Antiproliferative activity against human JeKo1 cells assessed as reduction in cell viability incubated for 72 hrs by CCK-8 assay
Description for OCI-Ly10: Antiproliferative activity against human OCI-LY10 cells assessed as reduction in cell viability incubated for 72 hrs by CCK-8 assay
Description for Raji: Antiproliferative activity against human Raji cells assessed as reduction in cell viability incubated for 72 hrs by CCK-8 assay
Description for Ramos: Antiproliferative activity against human Ramos cells assessed as reduction in cell viability incubated for 72 hrs by CCK-8 assay

On to `C=CC(=O)Nc1cccc(Nc2nc(Nc3ccc4c(c3)COB4O)ncc2OC)c1`, for which half-maximal inhibition in [1] (IC50) required 8.2 nM.

Regarding `C=CC(=O)Nc1cccc(Nc2nc(Nc3ccc4c(c3)B(O)OC4)ncc2Cl)c1`, inhibition in data set [1] was half-maximal at 4.7 nM (IC50).

For the molecule `C=CC(=O)Nc1ccc(OC)c(Nc2nc(Nc3ccc4c(c3)B(O)OC4)ncc2C(F)(F)F)c1`, the IC50 (usually the concentration needed to halve the response being measured) in [1] is over 1000 nM.

For the molecule `C=CC(=O)Nc1cccc(Oc2nc(Nc3ccc4c(c3)COB4O)ncc2OC)c1`, the IC50 in data set [2] is over 1000 nM; in data set [3] it was over 1000 nM; in data set [1], 1.7 nM; in [7] it was over 1000 nM; in data set [8], 0.8 nM. Also, the Ratio IC50 in the data set filed under Homo sapiens [4], in the data set filed under Homo sapiens [5] and in the data set listed under Homo sapiens [6] was over 1000 throughout.

In turn, `C=CC(=O)Nc1cccc(Oc2nc(Nc3ccc4c(c3)COB4O)ncc2C(F)(F)F)c1` registered an IC50 in [1] of 6.5 nM.

With `C=CC(=O)Nc1cccc(Nc2nc(Nc3ccc(B(O)O)cc3)ncc2C(F)(F)F)c1`, the IC50 in data set [2] is over 1000 nM; in data set [3] it was over 1000 nM; in data set [1], 1.5 nM; in [7] it was 891 nM; in data set [8], 0.3 nM. In addition, the Ratio IC50 in the data set listed under Homo sapiens [4], in the data set listed under Homo sapiens [5] and in the data set listed under Homo sapiens [6] was over 1000 throughout.

In data set [1], `C=CC(=O)Nc1cccc(Nc2nc(Nc3cccc(B(O)O)c3)ncc2C(F)(F)F)c1` had an IC50 of 6.5 nM.

`C=CC(=O)Nc1cccc(Nc2nc(Nc3cc4c(cc3F)COB4O)ncc2C(F)(F)F)c1` registered an IC50 in [1] of 156 nM.

As for `C=CC(=O)Nc1cccc(Nc2nc(Nc3ccc4c(c3)B(O)OC4)ncc2F)c1`, the midpoint of inhibition in [1], the IC50, lay at 8.5 nM.

Consider `C=CC(=O)Nc1cccc(Nc2nc(Nc3ccc4c(c3)B(O)OC4)ncc2C)c1`, for which the IC50 in data set [1] worked out at 6.1 nM.

In [1], `CN(C)C/C=C/C(=O)Nc1cccc(Nc2nc(Nc3ccc4c(c3)COB4O)ncc2C(F)(F)F)c1` yielded an IC50 of 11.8 nM.

`C=CC(=O)N1CCCC(Nc2nc(Nc3ccc4c(c3)COB4O)ncc2C(F)(F)F)C1` (centres undefined) returned a half-inhibitory concentration (IC50) in data set [1] of 36.8 nM.

Regarding `C=CC(=O)Nc1cccc(Nc2nc(Nc3ccc4c(c3)B(O)OC4(C)C)ncc2C(F)(F)F)c1`, the IC50 in [2] was over 1000 nM; in data set [3], over 1000 nM; in data set [1] it was 2 nM; in data set [7], over 1000 nM; in [8], 1 nM. The Ratio IC50 in the data set listed under Homo sapiens [4], in the data set filed under Homo sapiens [5] and in the data set filed under Homo sapiens [6] was over 1000 each time.

On to `C=CC(=O)Nc1cccc(Nc2nc(Nc3ccc4c(c3)B(O)OCC4)ncc2C(F)(F)F)c1`, for which the IC50 in data set [2] is over 1000 nM; in [3], over 1000 nM; in data set [1] it was 1.9 nM; in [7], over 1000 nM; in [8], 1.5 nM. In addition, the Ratio IC50 in the data set filed under Homo sapiens [4], in the data set listed under Homo sapiens [5] and in the data set filed under Homo sapiens [6] was over 1000 throughout.

For `C=CC(=O)Nc1cccc(Nc2nc(NNc3ccccc3)ncc2C(F)(F)F)c1`, the IC50 in data set [1] was over 1000 nM.

In the case of `C=CC(=O)Nc1cccc(Nc2nc(Nc3cccc4c3B(O)OC4)ncc2C(F)(F)F)c1`, 268 nM corresponded to half-maximal inhibition in data set [1] (IC50).

With `C=CC(=O)Nc1cccc(Nc2nc(Nc3ccc(OCCOC)cc3)ncc2F)c1` [SPEBRUTINIB], the IC50 was over 1000 nM in [2]; 534 nM in data set [7]; 8.5 nM in data set [8]; 17600 nM with Raji; 3900 nM in the data set with Ramos; 5300 nM in the data set with HEL. Also, the half-inhibitory concentration (IC50) in the data set with JeKo-1 is 1300 nM; with OCI-Ly10, over 10000 nM. Besides, the half-life (usually how long it takes for the measured level to halve) at 1 h, 0.2 µM in “in vitro [9]” is 43.4 min. For the same molecule, the microsomal CLint – broadly, a measure of how fast metabolising enzymes remove a compound, apart from limits set by blood flow – at 1 h, 0.2 µM in the data set “in vitro [10]” is 31.9 µL/min/mg. Also, in “in vitro [11]”, the share remaining (in general, the share of the starting amount still present when the sample was taken) at 1 h, 0.2 µM is 38.8%.

For the molecule `C=CC(=O)Nc1cccc(Nc2nc(Nc3ccc4c(c3)B(O)OC4)ncc2C(F)(F)F)c1`, the half-maximal inhibitory concentration (IC50) in data set [2] is over 1000 nM; in [3], over 1000 nM; in [1], 2.9 nM; in data set [7], 972 nM; in data set [8], 0.5 nM; with Raji, 6800 nM. Besides, the IC50 in the data set on Ramos is 2300 nM; in the data set with HEL it was 5100 nM; in the data set with JeKo-1, 1200 nM; with OCI-Ly10 it was over 10000 nM. In addition, the Ratio IC50 in the data set listed under Homo sapiens [4], in the data set filed under Homo sapiens [5] and in the data set filed under Homo sapiens [6] was over 1000 each time. The molecule further yielded a half-life at 1 h, 0.2 µM in the data set “in vitro [9]” of 55.9 min. This molecule came in with a microsomal CLint at 1 h, 0.2 µM in the data set “in vitro [10]” of 24.8 µL/min/mg. This molecule registered a fraction remaining at 1 h, 0.2 µM in “in vitro [11]” of 45%.

In turn, `C=CC(=O)Nc1cccc(Nc2nc(Nc3cccc4c3COB4O)ncc2C(F)(F)F)c1` displayed an IC50 in [1] of 63 nM.

Turning to `C=CC(=O)Nc1cccc(Nc2nc(Oc3ccc4c(c3)B(O)OC4)ncc2C(F)(F)F)c1`, the IC50 in [1] was over 1000 nM.

As to `C=CC(=O)Nc1cccc(Nc2nc(Nc3ccc4c(c3)COB4O)ncc2C(F)(F)F)c1`, the IC50 in data set [2] is over 1000 nM; in [3] it was over 1000 nM; in data set [1], 0.6 nM; in data set [7], 658 nM; in data set [8], 0.4 nM; with Raji, 1700 nM. Moreover, the IC50 is 500 nM in the data set with Ramos, 1100 nM in the data set with HEL, 500 nM with JeKo-1 and 1000 to 10000 nM in the data set on OCI-Ly10. Moreover, the Ratio IC50 in the data set listed under Homo sapiens [4], in the data set listed under Homo sapiens [5] and in the data set filed under Homo sapiens [6] was over 1000 each time. This molecule also came in with a half-life at 1 h, 0.2 µM in the data set “in vitro [9]” of 58.8 min. Besides, in the data set “in vitro [10]”, the microsomal CLint at 1 h, 0.2 µM stood at 23.6 µL/min/mg. Besides, in the data set “in vitro [11]”, the share remaining at 1 h, 0.2 µM is 47.2%.
